What was measured:
kinase domain of STK4 = kinase domain of STK4 (Homo sapiens (Human), UniProt Q13043); assay: Isothermal titration calorimetry (ITC), STK4; type: binding; conditions: 25° C
Procedure: (§1) All ITC experiments were performed using NanoITC (TA Instruments: New Castle, DE, USA) at 25° C. in a buffer containing 20 mM Tris pH 7.5, 150 mM NaCl, and 0.5 mM TCEP. […] For this protocol the chamber was pre-equilibrated with the test compound, and the kinase domain of STK3 or STK4 was titrated in while continuously measuring the rate of exothermic heat evolution. The heat of binding was integrated, corrected, and fitted to an independent single-binding site model based on the manufacturer's protocol, from which thermodynamic parameters (ΔH and TΔS), equilibrium association and dissociation constants (Ka and KD), and stoichiometry (n) were calculated.
(§2) Isothermal titration calorimetry (ITC) was used to determine the thermodynamic properties of the compounds.

LRRK2 = LRRK2 (Homo sapiens (Human), UniProt Q5S007); assay: NanoBRET intracellular kinase assay, LRRK2; type: cell-based; conditions: transfected HEK293 cells, 2 h
Procedure: Full-length STK3, STK4, and LRRK2 kinase was cloned in-frame with a C-terminal NanoLuc-fusion (Promega: Madison, WI, USA) and the plasmid was transfected into HEK293T cells using FuGENE HD (Promega, E2312). After 20 h, transfected cells were mixed with inhibitors and 50 nM NanoBRET Kinase Tracer K10 (Promega) and reseeded at a density of 2× 10^5 cells/mL in Opti-Minimal Essential Medium (MEM) without phenol red (Life Technologies; Carlsbad, CA, USA) in 384-well plates (Greiner 781-207; Kremsmunster, Austria). After 2 h at 37° C. in a 5% CO2 atmosphere, NanoBRET NanoGlo Substrate+Extra-cellular NanoLuc Inhibitor (Promega, N2540) was added, and filtered luminescence was measured on a PHERAstar plate reader (BMG Labtech; Ortenberg, Germany) equipped with a lumi-nescence filter pair (450 nm BP filter (donor) and 610 nm LP filter (acceptor)).
To confirm cellular potency for compounds described herein, the […] were used to detect engagement of STK3 and STK4 in live cells using the NanoBRET™ intracellular kinase assay, marking the first report of a NanoBRET assay for STK3 and STK4. This assay measured the apparent affinity of test compounds by competitive displacement of the NanoBRET™ tracer, reversibly bound to a NanoLuc® luciferase-kinase fusion in cells. To evaluate potential off-target activity of the inhibitors, the inhibition of LRRK2 in live cells by the STK3/4 inhibitors compounds described herein were measured. Cultured HEK293 cells were either transfected with NanoLuc®-STK3 fusion vector, NanoLuc®-STK4 fusion, or with NanoLuc®-LRRK2 vector for 24 h. A 50 nM tracer and these compounds were added to cells and incubated for 2 h. These compounds tested in the assays decreased the NanoBRET™ signal for both STK3 and STK4 at varying potencies and confirming cellular target engagement of STK3/4.

STK4 = STK4 (Homo sapiens (Human), UniProt Q13043); assay: PhosphoSens CSox-based Sensor Assay, STK4; type: biochemical; conditions: Km ATP, mean n = 2
Procedure: (§3) Materials were obtained and prepared according to the assay manufacturer's protocol (Assay Quant Technologies: Marlborough, MA, USA). The 50 μL reaction was initiated by addition of a master mix containing the compounds or vehicle, kinase, and CSox-peptide substrate to a well containing the remaining components. […] Final concentrations were: […] HEPES pH 7.5, 50 μM ATP, 1.0 mM DTT, 0.01% Brij-35, 0.5 mM EGTA, 10 mM MgCl2, 10 μM peptide substrate (AQT0135), and 5.0 nM STK3 (SignalChem #S24-10G) or STK4 (SignalChem #S25-10G) kinases. […] Background-corrected RFU were plotted against time using Prism 8 software. Velocity determinations were calculated for each reaction and plotted versus compound concentration to generate inhibitor curves.
(§4) The PhosphoSens® CSox-based Sensor real-time kinetic assay uses a peptide substrate containing an unnatural amino acid and physiological Mg^2+ levels to quantify substrate phosphorylation using fluorescence.

STK3 = STK3 (Homo sapiens (Human), UniProt Q13188); assay: PhosphoSens CSox-based Sensor Assay, STK3; type: biochemical; conditions: Km ATP, mean n = 2
Procedure: as §3, §4

kinase domain of STK3 = kinase domain of STK3 (Homo sapiens (Human), UniProt Q13188); assay: Isothermal titration calorimetry (ITC), STK3; type: binding; conditions: 25° C
Procedure: as §1, §2

Chain of LRRK2 (Q5S007 whole entry, species assumed, the tested form may be a part): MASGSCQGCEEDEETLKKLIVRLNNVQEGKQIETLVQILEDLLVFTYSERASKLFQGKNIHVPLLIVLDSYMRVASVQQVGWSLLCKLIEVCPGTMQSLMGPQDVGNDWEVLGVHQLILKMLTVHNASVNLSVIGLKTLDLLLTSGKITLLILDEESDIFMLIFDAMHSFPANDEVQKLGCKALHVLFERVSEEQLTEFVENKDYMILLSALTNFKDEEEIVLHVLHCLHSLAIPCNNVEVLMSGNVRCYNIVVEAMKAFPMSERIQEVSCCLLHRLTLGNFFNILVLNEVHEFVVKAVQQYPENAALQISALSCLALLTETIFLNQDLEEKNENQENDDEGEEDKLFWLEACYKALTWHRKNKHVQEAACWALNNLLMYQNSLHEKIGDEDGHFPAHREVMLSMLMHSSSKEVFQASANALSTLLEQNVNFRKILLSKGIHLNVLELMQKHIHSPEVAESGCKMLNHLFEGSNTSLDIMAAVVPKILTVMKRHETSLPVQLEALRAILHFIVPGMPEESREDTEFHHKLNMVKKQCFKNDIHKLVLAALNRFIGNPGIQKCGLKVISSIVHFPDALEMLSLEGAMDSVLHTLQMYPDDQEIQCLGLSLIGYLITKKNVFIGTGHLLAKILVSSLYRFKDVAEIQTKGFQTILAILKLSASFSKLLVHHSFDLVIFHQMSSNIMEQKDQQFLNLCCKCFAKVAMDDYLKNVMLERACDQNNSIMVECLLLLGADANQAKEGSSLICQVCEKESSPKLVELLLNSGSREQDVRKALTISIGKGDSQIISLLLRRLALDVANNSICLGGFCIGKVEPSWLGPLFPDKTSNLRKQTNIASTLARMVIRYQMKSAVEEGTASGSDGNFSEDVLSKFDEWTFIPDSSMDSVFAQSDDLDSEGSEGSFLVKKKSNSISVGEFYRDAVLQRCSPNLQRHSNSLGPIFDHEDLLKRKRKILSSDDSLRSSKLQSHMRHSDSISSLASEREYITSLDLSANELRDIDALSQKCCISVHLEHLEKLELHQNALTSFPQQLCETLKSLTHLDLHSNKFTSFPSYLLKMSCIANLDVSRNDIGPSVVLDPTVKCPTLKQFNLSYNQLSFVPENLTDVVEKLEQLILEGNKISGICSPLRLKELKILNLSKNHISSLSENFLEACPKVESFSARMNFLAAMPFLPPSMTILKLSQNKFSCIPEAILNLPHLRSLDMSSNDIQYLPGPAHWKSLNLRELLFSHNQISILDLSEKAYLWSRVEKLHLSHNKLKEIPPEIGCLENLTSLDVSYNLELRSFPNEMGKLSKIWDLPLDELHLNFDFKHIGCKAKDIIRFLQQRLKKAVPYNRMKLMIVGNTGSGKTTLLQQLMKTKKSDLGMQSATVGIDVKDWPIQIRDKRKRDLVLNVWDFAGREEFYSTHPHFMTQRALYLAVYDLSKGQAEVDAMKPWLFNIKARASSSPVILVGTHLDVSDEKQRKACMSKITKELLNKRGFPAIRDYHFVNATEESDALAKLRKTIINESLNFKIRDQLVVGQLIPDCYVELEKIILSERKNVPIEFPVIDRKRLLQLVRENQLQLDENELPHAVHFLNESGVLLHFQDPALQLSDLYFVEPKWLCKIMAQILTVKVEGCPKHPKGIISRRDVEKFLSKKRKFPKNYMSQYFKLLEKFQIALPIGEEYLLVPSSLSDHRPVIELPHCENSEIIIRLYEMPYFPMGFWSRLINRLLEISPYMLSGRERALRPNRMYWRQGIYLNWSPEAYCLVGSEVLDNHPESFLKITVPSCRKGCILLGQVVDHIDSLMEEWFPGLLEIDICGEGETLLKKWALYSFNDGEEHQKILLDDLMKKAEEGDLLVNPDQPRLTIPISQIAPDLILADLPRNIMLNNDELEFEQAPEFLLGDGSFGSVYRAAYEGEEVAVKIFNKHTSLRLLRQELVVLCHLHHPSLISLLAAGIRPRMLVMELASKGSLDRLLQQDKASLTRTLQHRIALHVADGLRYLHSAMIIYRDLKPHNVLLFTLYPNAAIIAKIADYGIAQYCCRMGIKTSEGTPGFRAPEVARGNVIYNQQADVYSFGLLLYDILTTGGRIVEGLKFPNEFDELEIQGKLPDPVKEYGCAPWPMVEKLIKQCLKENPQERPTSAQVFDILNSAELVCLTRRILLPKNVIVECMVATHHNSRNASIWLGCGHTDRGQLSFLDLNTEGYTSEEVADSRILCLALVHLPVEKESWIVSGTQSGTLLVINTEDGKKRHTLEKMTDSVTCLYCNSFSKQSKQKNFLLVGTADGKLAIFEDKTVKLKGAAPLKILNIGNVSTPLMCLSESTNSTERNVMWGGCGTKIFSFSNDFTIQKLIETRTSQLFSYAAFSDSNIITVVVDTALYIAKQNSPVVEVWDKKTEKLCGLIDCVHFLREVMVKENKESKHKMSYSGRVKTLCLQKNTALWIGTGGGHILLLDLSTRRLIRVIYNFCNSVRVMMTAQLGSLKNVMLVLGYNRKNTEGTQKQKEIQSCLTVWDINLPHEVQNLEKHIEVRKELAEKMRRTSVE
Chain of kinase domain of STK4 (Q13043 30-281): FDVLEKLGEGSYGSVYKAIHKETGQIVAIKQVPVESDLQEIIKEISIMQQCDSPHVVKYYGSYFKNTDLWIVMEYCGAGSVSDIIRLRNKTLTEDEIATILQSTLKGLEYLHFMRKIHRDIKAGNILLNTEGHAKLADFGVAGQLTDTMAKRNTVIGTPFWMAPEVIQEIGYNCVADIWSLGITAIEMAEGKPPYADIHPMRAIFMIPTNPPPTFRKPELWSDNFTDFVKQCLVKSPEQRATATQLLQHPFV
Chain of STK4 (Q13043 whole entry): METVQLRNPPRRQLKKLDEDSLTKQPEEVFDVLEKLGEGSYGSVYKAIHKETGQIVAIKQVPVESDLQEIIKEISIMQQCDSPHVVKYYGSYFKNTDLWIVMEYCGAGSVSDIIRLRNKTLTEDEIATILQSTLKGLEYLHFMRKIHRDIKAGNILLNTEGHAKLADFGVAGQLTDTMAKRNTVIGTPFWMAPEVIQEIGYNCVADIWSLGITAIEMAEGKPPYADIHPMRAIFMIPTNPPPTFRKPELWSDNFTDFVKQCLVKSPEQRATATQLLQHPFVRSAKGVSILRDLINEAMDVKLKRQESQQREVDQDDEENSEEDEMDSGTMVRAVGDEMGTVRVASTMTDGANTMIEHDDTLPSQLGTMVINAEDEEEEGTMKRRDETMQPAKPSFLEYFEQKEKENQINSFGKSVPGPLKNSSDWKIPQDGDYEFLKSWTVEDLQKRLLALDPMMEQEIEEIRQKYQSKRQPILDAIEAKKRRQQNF
Chain of STK3 (Q13188 whole entry): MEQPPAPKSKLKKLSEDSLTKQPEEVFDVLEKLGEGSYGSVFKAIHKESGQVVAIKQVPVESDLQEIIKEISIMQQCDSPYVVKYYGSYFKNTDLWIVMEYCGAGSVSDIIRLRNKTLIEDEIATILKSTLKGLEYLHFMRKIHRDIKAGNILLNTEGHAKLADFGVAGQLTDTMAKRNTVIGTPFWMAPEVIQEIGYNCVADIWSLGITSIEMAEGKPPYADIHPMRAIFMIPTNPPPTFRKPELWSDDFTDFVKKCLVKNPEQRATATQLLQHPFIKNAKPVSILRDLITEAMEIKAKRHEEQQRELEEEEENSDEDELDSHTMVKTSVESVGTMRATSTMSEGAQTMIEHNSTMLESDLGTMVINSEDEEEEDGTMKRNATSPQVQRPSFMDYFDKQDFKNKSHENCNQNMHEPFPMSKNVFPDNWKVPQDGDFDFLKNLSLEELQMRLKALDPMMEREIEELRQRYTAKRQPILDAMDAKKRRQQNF
Chain of kinase domain of STK3 (Q13188 27-278): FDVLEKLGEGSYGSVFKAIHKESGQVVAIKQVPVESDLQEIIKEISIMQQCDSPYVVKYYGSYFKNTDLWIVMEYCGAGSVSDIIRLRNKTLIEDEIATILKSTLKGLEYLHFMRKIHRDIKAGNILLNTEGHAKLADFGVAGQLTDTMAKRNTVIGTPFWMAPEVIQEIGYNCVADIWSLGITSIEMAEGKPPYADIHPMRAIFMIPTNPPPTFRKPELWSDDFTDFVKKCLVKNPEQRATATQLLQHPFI

## Clc1cccc(-c2c[nH]c3ncnc(N4CCOCC4)c23)c1 [Compound 6, 4-(5-(3-Chlorophenyl)-7H-pyrrolo[2,3-d]pyrimidin-4-yl)morpholine]
Kinase domain of STK4
  ITC-KD, STK4: low nanomolar affinities
LRRK2
  IC50: ≤ 1 µM
STK4
  Ki: 0.052 µM

## NC(=O)c1cccc(-c2c[nH]c3ncnc(N4CCOCC4)c23)c1 [Compound 11, 3-(4-Morpholino-7H-pyrrolo[2,3-d]pyrimidin-5-yl)benzamide]
STK3
  Ki: 0.145 µM
LRRK2
  IC50: ≥ 2 µM

## OC1CCN(c2ncnc3[nH]cc(-c4cccc(Cl)c4)c23)CC1 [Compound 16, 1-(5-(3-Chlorophenyl)-7H-pyrrolo[2,3-d]pyrimidin-4-yl)piperidin-4-ol]
LRRK2
  LRRK2: IC50: B (B: IC50 is >2000 nM and <1000 nM)

## Clc1cccc(-c2c[nH]c3nccc(N4CCOCC4)c23)c1 [Compound 23, 4-(3-(3-chlorophenyl)-1H-pyrrolo[2,3-b]pyridin-4-yl)morpholine]
Kinase domain of STK4
  ITC-KD, STK4: low nanomolar affinities
STK3
  Ki: 0.209 µM
Kinase domain of STK3
  ITC-KD, STK3: low nanomolar affinities
LRRK2
  IC50: ≤ 1 µM
STK4
  Ki: 0.033 µM

## CC(=O)NC1CCN(c2ncnc3[nH]cc(-c4cccc(Cl)c4)c23)CC1 [Compound 105, N-(1-(5-(3-chlorophenyl)-7H-pyrrolo[2,3-d]pyrimidin-4-yl)piperidin-4-yl)acetamide]
LRRK2
  LRRK2: IC50: B (B: IC50 is >2000 nM and <1000 nM)

Reference: patent US20250051337A1 (priority 2021, published 2025)
